pIC50: −log10 of the molar value. Several values for one entry are separate records, joined by “and”; a condition that tells them apart may be missing. Identical values can stand only once.

60 compounds from PubChem BioAssay AID2305 (GlaxoSmithKline (GSK), 2010) can be followed below.

This test deals with P. falciparum 3D7 growth, pLDH absorbance. Description: blood-stage malaria parasite growth potency – strain 3D7, dose response (AID 2305).
The term pIC50 denotes the negative decadic logarithm of the IC50, by convention in mol/L. Consider `COc1ccc2nc(-c3ccccc3)cc(NCCCNc3cc(-c4ccccc4)nc4ccc(OC)cc34)c2c1`, for which the pIC50 is 6.92.
For `COc1cc(Nc2ccnc3cc(-c4nccs4)ccc23)ccc1OCCCc1nc2ccccc2[nH]1`, the pIC50 is 6.62.
In the case of `C[C@H]1CN(Cc2cccc(-c3cc(CNC(=O)c4cccc(C(=O)c5ccc(Cl)c(Cl)c5)c4)ccc3F)c2)CCN1` it was 5.94.
To `OC(CNc1ccnc(Nc2ccc(Cl)cc2)n1)c1ccccc1C(F)(F)F` (stereo not given) belongs 6.10; to `NCc1ccc(Nc2nccc(Nc3ccc(-c4ccccc4)cc3)n2)cc1`, 6.05; to `Nc1c2c(nc3ccc(C(=O)Nc4ccccc4)cc13)CCCC2`, 6.15.
The compound `CCNc1cc(C(=O)N[C@@H](Cc2ccc(F)c(F)c2)[C@H](O)CNCc2cccc(OC)c2)cc(N2CCCCS2(=O)=O)c1` had a pIC50 of 6.12.
To `Cc1cccc2[nH]c(-c3cccc(-c4ccc(C(=O)NCc5nccn5C)cc4)c3)nc12` belongs 5.88.
Compound `O=C(Cc1cnc[nH]1)Nc1ccc(-c2ccc(-c3nc4ccc(C(F)(F)F)cc4[nH]3)s2)cc1` gave a pIC50 of 6.18. Against the preceding compound, the pIC50 is 0.30 log units higher.
In the case of `Oc1ccc(CCNc2nc(NCCCOc3ccccc3-c3ccncc3)nc(N3CCNCC3)n2)cc1` it was 5.95.
In the case of `Nc1c(Cl)cc(C(O)CNCCCCCOCCc2ccc3occc3c2)cc1Cl` (stereo not given) it was 6.16.
To `O=C(/C=C/c1ccc(Cl)c(Cl)c1)NCCCCCN1CC[C@H](c2c[nH]c3ccccc23)[C@@H](O)C1` belongs 6.10; to `Cc1cc(N[C@@H](Cc2ccccc2)C(=O)NCCOc2ccccc2)nc(NCCc2ccccc2)n1`, 5.99.
In the case of `COc1ccc(-c2cccc(NC(=O)c3ccc(F)cc3)c2)cc1CNC(C)C`, the pIC50 is 5.86.
The compound `COC(=O)/C=C/c1ccc(CCC(C)NCC(O)c2cccc(Cl)c2)cc1` (stereo not given) had a pIC50 of 6.03.
`CCCOc1ccc(N2C(N)=NC(N)=NC2(C)C)cc1` had a pIC50 of 6.31.
To `CC(=O)Nc1ccc(CN(Cc2ccc(F)cc2)Cc2ccc3c(c2)OCO3)cc1` belongs 6.03.
To `COc1ccc2nccc([C@@H](O)CN3CCC(NC(=O)c4ccc(CN5CCN(c6cccc(C)c6)CC5C)cc4)CC3)c2c1` (stereo not given in full) belongs 6.68; to `Cc1ccc(NC(=O)c2cccc(N3CCN(c4ccncc4)CC3)c2)cc1F`, 5.89; to `COc1cc2sc(=NC(=O)c3cccc([N+](=O)[O-])c3)n(C)c2cc1OC`, 6.14.
In the case of `Cc1[nH]c(C)c(-c2ccc(-c3ccc(Cl)cc3)nc2)c(=O)c1Br` it was 6.96; in that of `CC(=O)N(Cc1ccccc1-c1ccc(CNCCc2ccccc2)cc1)C1CCN(Cc2ccccc2)CC1`, 6.32.
Compound `CC(C)c1ccc(NC(=O)c2cccc(CN3CCCN(Cc4cccc(O)c4)CC3)c2)cc1` had a pIC50 of 6.11. This pIC50 is 0.21 log units lower than that of the compound before.
In turn, `O=C(NC1CCCCCC1)C1CCCN(C(=O)c2ccc(O)c(-c3ccc(Cl)c(Cl)c3)c2)C1` (stereo not given) showed a pIC50 of 6.12.
To `CC(=O)Nc1ccc(CNCCc2ccc(NC(=O)c3cc(Cl)cc(Cl)c3)cc2)cc1` belongs 6.17; to `O=C(/C=C/C=C/c1ccc(Cl)c(Cl)c1)NCCCCCN1CCCC2CCCCC21` (stereo not given), 6.02.
In the case of `Cc1ccc(-c2noc(COc3ccccc3C(=O)NC3CCCC3)n2)cc1` it was 6.06; in that of `CCCCCN(C(=O)Nc1cc(C(F)(F)F)cc(C(F)(F)F)c1)C(C)c1nc2ccccc2c(=O)n1CC` (stereo not given), 6.10.
`O=C(NCCCCN1CCC(c2ccc3c(c2OCc2ccncc2)CCCC3)CC1)c1ccc(-c2ccc(C(F)(F)F)cc2)cc1` gave a pIC50 of 6.77.
For the compound `Cc1cccc2[nH]c(-c3ccc(-c4ccc(NC(=O)Nc5ccc(Cl)cc5)cc4)cc3)nc12`, the negative-log IC50 (pIC50) was 7.00.
In turn, `O=C(Nc1ccc(Oc2ccccc2)cc1)N1CCC(CN2CCC(c3c[nH]c4ccccc34)CC2)CC1` gave a pIC50 of 6.21.
Consider `CCc1c(CCNCC/C=C/CCNCCc2ccc(OC)c(OC)c2CC)ccc(OC)c1OC`, for which the pIC50 was 6.11.
In the case of `Cc1ccc(/C=C/C(=O)NC2CCC(N3CCC(c4ccccc4C)CC3)CC2)cc1F` (stereo not given) it was 5.98; in that of `Cc1ccc2cc(NC(=O)c3cccc(C(=O)Nc4ccc5nc(C)ccc5c4)n3)ccc2n1`, 5.93.
In the case of `Cc1cccc2[nH]c(-c3cccc(-c4ccc(CNCc5ccccc5)cc4)c3)nc12` it was 6.82.
`CC(C)c1ccc(NC(=O)c2ccc(C(=O)NC3CCN(CC4CCCCC4)CC3)cc2)cc1`: the pIC50 is 6.19.
The compound `CCNc1cc(C(=O)N[C@@H](Cc2ccc(F)c(F)c2)[C@H](O)CNC2CCCCC2)cc(N2CCCCS2(=O)=O)c1` showed a pIC50 of 6.92.
On to `O=C(Nc1cccc(C(F)(F)F)c1)Nc1nc2ccc([N+](=O)[O-])cc2s1`, for which the pIC50 is 6.16.
On to `CC(C)c1ccc(CN2CCC(NC(=O)c3ccc(-c4ccccc4F)s3)CC2)cc1`, for which the pIC50 is 5.81.
In the case of `O=S(=O)(NCCN1CCCC1)c1ccc(-c2ccc(CNC3Cc4ccccc4C3)cc2)cc1F` it was 6.00; in that of `c1cn(-c2ccc(CNc3nccc(Nc4ccc(OCCN5CCOCC5)cc4)n3)cc2)cn1`, 6.06; in that of `COc1ccc(-c2csc(C(=O)NC3CCC(N4CCC(c5ccccc5C)CC4)CC3)c2)cc1` (stereo not given), 6.42.
In the case of `O=C(Nc1ccc(Cl)cc1)c1ccc(CN2CCCN(Cc3ccc(F)cc3)CC2)cc1`, the pIC50 was 6.01. This pIC50 is 0.41 log units lower than that of the compound before.
Consider `O=C(Cn1c(SCc2cccc(F)c2F)cc(=O)c2ccccc21)N(CCn1ccnc1)Cc1ccc(-c2ccc(C(F)(F)F)cc2)cc1`, for which the pIC50 is 6.11.
To `Cc1cc(CNC(c2ccccc2)C2CCC2)cc(C)c1O` (stereo not given) belongs 6.05; to `COc1ccc(CNC2CCN(C)CC2)cc1-c1ccc(S(=O)(=O)NC2CCC2)cc1`, 6.06.
With `c1cc(-c2cc3ccc(C4=NCCN4)cc3[nH]2)ccc1C1=NCCN1`, the pIC50 was 6.66.
To `O=C(Nc1cccc(-c2nn3ccccc3c2-c2ccnc(Nc3ccccc3)n2)c1)c1c(F)cccc1F` belongs 6.14; to `CCCC(=O)Nc1ccc(OCCCN(Cc2cccc(C(F)(F)F)c2)c2ccc(C#N)c(C(F)(F)F)c2)cc1`, 5.96.
For `NC(=O)COc1cccc2c1CCN(CCN1CCC(NC(=O)c3ccc(-c4ccc(Cl)cc4)cc3)CC1)C2`, the negative logarithm of the IC50 (pIC50) was 6.08.
To `O=C(/C=C/c1ccc(Cl)c(Cl)c1)NCCCCCCN1CCCN(C(=O)Nc2cc(F)cc(F)c2)CC1` belongs 6.15; to `COc1ccccc1C1CCN(C2CCC(NC(=O)c3cc4cc(C(C)C)ccc4[nH]3)CC2)CC1` (stereo not given), 6.07.
`Cc1ccnc(-n2c(C)cc(C=C3SC(=Nc4ccccc4)N(Cc4ccco4)C3=O)c2C)c1` showed a pIC50 of 6.62.
With `O=C(Nc1ccc(Br)cc1)c1cc(Br)ccc1NS(=O)(=O)c1ccc(C(F)(F)F)cc1`, the negative-log IC50 (pIC50) was 6.74.
In the case of `COc1cc(OCCCN(C)Cc2ccc(OC)c(OC)c2)ccc1NC(=O)c1cccc2c(=O)c3cccc(F)c3[nH]c12` it was 6.05; in that of `CCOCc1cn(CC(=O)c2ccc(-c3ccccc3)cc2)c(C)nc1=N`, 6.49.
For the compound `O=C(C=Cc1ccc(F)c(Br)c1)NC1CCC(CN2CCC(c3c[nH]c4ccccc34)CC2)CC1` (stereo not given), the negative-log IC50 (pIC50) was 6.10 and 6.08.
Compound `COc1ccc(-c2cccc(NC(=O)c3ccc(C#N)cc3)c2)cc1CN(C)CCN(C)C` had a negative-log IC50 (pIC50) of 7.15.
For `NC(N)=NC(=O)Nc1ccc([N+](=O)[O-])c(Cl)c1`, the negative-log IC50 (pIC50) is 6.06.
Consider `CCCCOc1cc(C)nc2ccc(NC(=O)COCC(=O)Nc3ccc4nc(C)cc(OCCCC)c4c3)cc12`, for which the negative-log IC50 (pIC50) is 6.00.
